Experimental data: patent US20020151568A1, “Piperidinylethyl-, phenoxyethyl-, and beta-fluorophenethyl-substituted thiourea compounds with potent anti-HIV activity” (priority 2000, published 2002)
Like-named read-outs stand apart in the source and are kept apart here.

Experiments:
[1] = test system: HIV-1 strain A17 (Y181C); experiment: Inhibition of replication of NNI-resistant HIV-1 strain A17 in PBMC; type: cell-based; conditions: for IC50: read-out: IC50 A17 (Y181C)
Description: (§1) The ability of Compounds 4 (HI-516), 11 (HI-566), and 12 (HI-565) to inhibit the replication of NNI-resistant HIV-1 strains, A17 (Y181C) and RT-MDR (V106A), was analyzed. The anti-HIV activity of the compounds was measured by determining their ability to inhibit the replication of HIV-1 strains A17 in PBMC from healthy volunteer donors and RT-MDR in H9 cells.
(§2) Compounds 4, 11, and 12 were compared with nevirapine or delavirdine, two known non-nucleoside reverse transcriptase inhibitors of HIV-1 RT.

[2] = test system: HIV-1 strain HTLVIIIB; experiment: Inhibition of HIV-1 HTLVIIIB replication in PBMC (p24 antigen EIA); type: cell-based; conditions: HIV-1 strain HTLVIIIB in human PBMC, p24 EIA on 7th day after infection; for IC50: read-out: IC50 [HTL VIIIB]
Description: The cells were then infected with virus at a multiplicity of infection (MOI) of 0.1 during a one-hour adsorption period at 37° C. in a humidified 5% CO2 atmosphere. Subsequently, cells were cultured in 96-well microplates (100 μL/well; 2×10^6 cells/mL, triplicate wells) in the presence of various inhibitor concentrations. […] Ag. […] The applied p24 EIA was the unmodified kinetic assay commercially available from Coulter Corporation/Immunotech, Inc. (Westbrook, Me.).
To test the therapeutic activity of the compounds of the invention, p24 assays were utilized as previously described. […] 1 during a one-hour adsorption period at 37° C. in a humidified 5% CO2 atmosphere. Subsequently, cells were cultured in 96-well microliter plates ([…]; 2×10^6 cells/mL, triplicate wells) in the presence of various inhibitor concentrations. Aliquots of culture supernatants were removed from the wells on the 7th day after infection for p24 antigen p24 enzyme immunoassays (EIA).
The applied p24 EIA was the unmodified kinetic assay commercially available from Coulter Corporation/Immunotech, Inc. (Westbrooke, Me.), which utilizes a murine monoclonal antibody to HIV core protein coated onto microwell strips to which the antigen present in the test culture supernatant samples binds. Percent inhibition of viral replication was calculated by comparing the p24 values from the test substance treated infected cells with p24 values from untreated infected cells (i.e., virus controls).

[3] = test system: HIV-1 strain RT-MDR (V106A); experiment: Inhibition of replication of NNI-resistant HIV-1 strain RT-MDR in H9 cells; type: cell-based
Description: as §1, §2

[4] = test system: human peripheral blood mononuclear cells (PBMC); experiment: Microculture Tetrazolium Assay (MTA, XTT) for cell viability of non-infected PBMC; type: cell-based; conditions: 7 days, read-out: CC (cytotoxic concentration, CC50)
Description: In parallel, the effects of various treatments on cell viability were also examined, as described in Enrice et.al., supra. In brief, non-infected PBNWC were treated with each compound for 7 days under identical experimental conditions. A Microculture Tetrazolium Assay (MTA), using 2,3-bis(2-methoxy-4nitro-5-sulfophenyl)-5-[(phenylarnino)-carbonyl]-2H-tetrazolium hydroxide (XTT), was performed to quantitate cellular proliferation.

[5] = A17 in PBMC from healthy volunteer donors
[6] = RT-MDR in H9 cells, read-out: IC50 RT-MDR (V106A)
[7] = Human immunodeficiency virus 1, PBMC
[8] = Human immunodeficiency virus 1, H9, read-out: IC50 RT-MDR (V106A)

**Q.** With FC(CNC(=S)Nc1ccc(Br)cn1)c1ccccc1 (stereo not drawn) [Compound 12, β-Fluoro[2-phenethyl]-N′-[2-(5-bromopyridyl)]thiourea] as the compound, how does the IC50 [1, 5] read?
**A.** 100 nM

**Q.** What about the “IC50 [HTL VIIIB]” value [2] of the same compound?
**A.** subnanomolar

**Q.** And the IC50 [2]?
**A.** < 1 nM

**Q.** And the “IC50 RT-MDR (V106A)” value ([3]; RT-MDR in H9 cells)?
**A.** submicromolar

**Q.** And the IC50 [3, 6]?
**A.** 200 nM

**Q.** What about the CC50 [4] of the same compound?
**A.** 50000 nM

**Q.** Which IC50 [1, 7] does the source give for Cc1ccnc2c1NC(=O)c1cccnc1N2C1CC1 [Nevirapine, reference compound] here?
**A.** 21400 nM

**Q.** And the IC50 [3, 8]?
**A.** 1400 nM

**Q.** With CC1CCCN(CCNC(=S)Nc2ccc(Br)cn2)C1 (stereo not drawn) [Compound 3, N-[2-(3-methylpiperidinylethyl)]-N′-[2-(5-bromopyridyl)]-thiourea] as the compound, how does the IC50 [2] read?
**A.** 80 nM

**Q.** With S=C(NCCN1CCCCC1)Nc1ccc(Br)cn1 [Compound 2, N-[2-(1-piperidinylethyl)]-N′-[2-(5-bromopyridyl)]-thiourea] as the compound, how does the “IC50 [HTL VIIIB]” value [2] read?
**A.** nanomolar concentrations

**Q.** What about the IC50 [2] of the same compound?
**A.** 2 nM

**Q.** With S=C(NCCN1CCCCC1)Nc1ccccn1 [Compound 1] as the compound, how does the IC50 [2] read?
**A.** > 100000 nM

**Q.** Which results are given for CC1CCCCN1CCNC(=S)Nc1ccc(Br)cn1 (stereo not drawn) [Compound 4, N-[2-(2-methylpiperidinylethyl)]-N′-[2-(5-bromopyridyl)]-thiourea]?
**A.** IC50 A17 (Y181C) [1, 5]: not active; IC50 [1, 5]: > 100000 nM; IC50 [2]: < 1 nM; IC50 RT-MDR (V106A) ([3]; RT-MDR in H9 cells): less active than nevirapine or delavirdine; IC50 [3, 6]: 1900 nM; CC50 [4]: 50000 nM

**Q.** Which results are given for S=C(NCCOc1ccccc1)Nc1ccccn1 [Compound 8, N-[2-(Phenoxy)ethyl]-N′-[2-(pyridyl)]thiourea]?
**A.** IC50 [2]: 5 nM; CC50 [4]: 55000 nM

**Q.** Which IC50 [2] does the source give for S=C(NCCc1ccccn1)Nc1ccc(Br)cn1 [Trovirdine, reference compound] here?
**A.** 7 nM

**Q.** And the CC50 [4]?
**A.** 100000 nM

**Q.** Which IC50 [1, 5] does the source give for FC(CNC(=S)Nc1ccc(Cl)cn1)c1ccccc1 (stereo not drawn) [Compound 11, β-Fluoro[2-phenethyl]-N′-[2-(5-chloropyridyl)] thiourea] here?
**A.** 100 nM

**Q.** What about the “IC50 [HTL VIIIB]” value [2] of the same compound?
**A.** subnanomolar

**Q.** And the IC50 [2]?
**A.** < 1 nM

**Q.** What about the “IC50 RT-MDR (V106A)” value ([3]; RT-MDR in H9 cells) of the same compound?
**A.** submicromolar

**Q.** What about the IC50 [3, 6] of the same compound?
**A.** 100 nM

**Q.** What about the CC50 [4] of the same compound?
**A.** 30000 nM

**Q.** With CC1CCCN(CCNC(=S)Nc2ccc(Cl)cn2)C1 (stereo not drawn) [Compound 6, N-[2-(3-methylpiperidinylethyl)]-N′-[2-(5-chloropyridyl)]-thiourea] as the compound, how does the IC50 [2] read?
**A.** 20 nM

**Q.** With S=C(NCCN1CCCCC1)Nc1ccc(Cl)cn1 [Compound 5, N-[2-(1-piperidinylethyl)]-N′-[2-(5-chloropyridyl)]-thiourea] as the compound, how does the “IC50 [HTL VIIIB]” value [2] read?
**A.** nanomolar concentrations

**Q.** What about the IC50 [2] of the same compound?
**A.** 1 nM

**Q.** With CC1CCCCN1CCCNC(=S)Nc1ccc(Cl)cn1 (stereo not drawn) [Compound 7, N-[3-(2-methylpiperidinylpropyl)]-N′-[2-(5-chloropyridyl)]-thiourea] as the compound, how does the melting point read?
**A.** 117 to 118 °C

**Q.** And the IC50 ([2]; Human immunodeficiency virus 1)?
**A.** 1 nM

**Q.** With S=C(NCCOc1ccccc1)Nc1ccc(Cl)cn1 [Compound 9, N-[2-(Phenoxy)ethyl]-N′-[2-(5-chloropyridyl)]thiourea] as the compound, how does the IC50 [2] read?
**A.** 4 nM

**Q.** And the CC50 [4]?
**A.** > 100000 nM

**Q.** Which results are given for CC(C)Nc1cccnc1N1CCN(C(=O)c2cc3cc(NS(C)(=O)=O)ccc3[nH]2)CC1 [Delavirdine, reference compound]?
**A.** IC50 [1, 7]: 50000 nM; IC50 [3, 8]: 400 nM

**Q.** With S=C(NCCOc1ccccc1)Nc1ccc(Br)cn1 [Compound 10, N-[2-(Phenoxy)ethyl]-N′-[2-(5-bromopyridyl)] thiourea] as the compound, how does the IC50 [2] read?
**A.** 5 nM

**Q.** What about the CC50 [4] of the same compound?
**A.** 92000 nM
